Experimental data as given in patent US6838237B2, “Antigenically reactive regions of the hepatitis a virus polyprotein” (The United States of America as represented by the …, priority 1996, dated 2005).
Values joined by “and” are separate entries in the source; they are usually repeats but may differ in a detail not shown here. Identical values can stand only once.

Assays:
[1] = test system: anti-HAV-positive sera; assay: EIA for anti-HAV: synthetic peptides adsorbed to wells, reacted with anti-HAV-positive acute sera; format: binding, human; conditions: for Reactivity with acute sera (reactive/tested): experiment 1: sera 1:100, anti-human IgG-HRP, cutoff P/N 3.0; for Reactivity with acute sera (percent of sera reactive): experiment 1: sera 1:100, cutoff P/N 3.0; for P/N for acute sera (mean) / P/N for acute sera (range, in parentheses) / P/N for acute sera (individual values): experiment 1; for P/N for acute sera (mean) / P/N for acute sera (range, in parentheses): OD493 positive/negative ratio of reactive sera; for P/N for acute sera (individual values): single sera listed with semicolon
Text: (§1) All anti-HAV-positive and anti-HAV-negative sera were randomly selected from a collection reposited at the Centers for Disease Control and Prevention, Atlanta, Ga. Serum specimens were collected from anti-HAV-positive patients with acute liver disease. Anti-HAV-negative serum specimens were collected from normal blood donors. All sera were initially tested by commercially available kit for the presence of anti-HAV activity (HAVAB and HAVAB-M, Abbott Laboratories, Abbott Park, Ill.)
(§2) Synthetic peptides (110 ml) at a concentration of 10 mg/ml in 0.1 M phosphate-buffered saline (PBS), pH 7.5, were adsorbed to microtiter wells (Immulon II, Dynatech Laboratories, Inc.) at room temperature for 12 h. Sera were diluted in PBS containing 0.1% Tween 20 and 10% normal goat serum (PBS-T) and 100 ml were added to each well, incubated for 60 min at 37E C, and washed with PBS containing Tween-20. […] Two different cutoffs were established for experiments 1 and 2. In experiment 1, the cutoff, expressed as a P/N ratio and equal to 3.0, was statistically established as the mean of negative controls plus at least 3.5 standard deviations (SD) above the mean, where P represents the optical density value at 493 nm (OD493) of anti-HAV-positive specimens and N represents the optical density value of negative controls. In experiment 2, a different cutoff was used to ensure statistical reliability and accurate interpretation of positive results. In this case, in addition to anti-HAV-negative sera, two irrelevant synthetic peptides were used as supplemental negative controls to determine the degree of nonspecific binding of anti-HAV sera to synthetic peptides. One cutoff, expressed as a P/N ratio and equal to 3.0, corresponded to the mean of negative serum controls plus at least 3.5 SD above the mean. A second cutoff was also expressed as a P/N ratio, where P represents the optical density value at 493 nm (OD493) for HAV peptides immunoreacting with anti-HAV-positive specimens and N represents the optical density value obtained with the irrelevant peptides. The second cutoff was equal 2.0 and corresponded to the mean of OD values obtained with the irrelevant peptides plus at least 3.5 SD above the mean. Synthetic peptides were considered immunoreactive with anti-HAV serum specimens only when both cutoffs were satisfied.

[2] = test system: anti-HAV-negative sera; assay: EIA for anti-HAV: synthetic peptides reacted with anti-HAV-negative sera; format: binding, human; conditions: experiment 1: sera 1:100, cutoff P/N 3.0
Text: as §1, §2

| Sequence | immunoreactivity with anti-HAV-positive sera (in words) [1] | Reactivity with acute sera (reactive/tested) [1] | Reactivity with acute sera (percent of sera reactive) [1] [%] | P/N for acute sera (mean) [1] | P/N for acute sera (range, in parentheses) [1] | Reactivity with negative sera (reactive/tested) [2] | P/N for acute sera (individual values) [1] | percent of (IgM) anti-HAV-positive sera immunoreactive with peptide [1] |
| --- | --- | --- | --- | --- | --- | --- | --- | --- |
| AGDLESSVDDPRSEEDKRFE [YK-1313] | broad and strong antigenic reactivity | 18/48 | 37.5 | 15.79 | (3.0-108.06) | 3/51 | – | – |
| AKKVPETFPELKPGESRHTS [YK-1273] | broad and strong antigenic reactivity | 19/46 | 41.3 | 5.15 | (3.15-8.58) | 3/48 | – | – |
| CPKDELRPLEKVLESKTRAI [YK-1411] | – | 8/41 | 19.5 | 8.18 | (4.65-17.65) | 0/27 | – | – |
| DHMSIYKFMGRSHFLCTFTF [YK-1276] | broad and strong antigenic reactivity | 17/41 | 41.5 | 4.38 | (3.15-5.62) | 0/46 | – | – |
| DKPGSKKTQGEKFFLIHSAD [YK-1212] | – | 3/41 | 7.3 | 3.5 | (3.04-3.96) | 0/46 | – | – |
| DLDFSAFDASLSPFMIREAG [YK-1419] | – | 5/41 | 12.2 | 5.27 | (3.98-8.49) | 1/27 | – | – |
| DLEEIAANSKDFPNMSETDL [YK-1328] | – | 6/48 | 12.5 | 4.76 | (3.74-6.39) | 1/51 | – | – |
| DRTAVTGASYFTSVDQSSVH [YK-1208] | – | 5/41 | 12.2 | 4.29 | (3.27-5.54) | 0/46 | – | – |
| DSAVAEFFQSFPSGEPSNSK [YK-1369] | – | 24/41 | 58.5 | 21.71 | (3.8-42.62) | 1/27 | – | – |
| DVVLMKVPTIPKFRDITQHF [YK-1382] | – | 1/41 | 2.4 | 8.4 | – | 0/27 | – | – |
| EDPVLAKKVPETFPELKPGE [YK-1272] | – | 6/41 | 14.6 | 5.4 | (4.87-6.12) | 1/46 | – | – |
| EPLRTSVDKPGSKKTQGEKF [YK-1211] | – | 21/46 | 45.7 | 9.33 | (3.37-27.92) | 0/48 | – | – |
| EVGSHQVEPLRTSVDKPGSK [YK-1210] | – | 15/46 | 32.6 | 7.31 | (3.93-20.47) | 0/48 | – | – |
| FDFQVFPTKYHSGRLLFCFV [YK-1249] | broadly and strongly immunoreactive | 18/46 | 39.1 | 5.03 | (3.07-7.03) | 0/48 | – | – |
| FNASDSVGQQIKVIPVDPYF [YK-1242] | Very weakly reactive | 1/41 | 2.4 | 3.1 | – | 0/46 | – | – |
| FPELKPGESRHTSDHMSIYK [YK-1274] | – | 9/46 | 19.6 | 5.31 | (3.0-8.47) | 1/48 | – | – |

| Sequence | immunoreactivity with anti-HAV-positive sera (in words) [1] | Reactivity with acute sera (reactive/tested) [1] | Reactivity with acute sera (percent of sera reactive) [1] [%] | P/N for acute sera (mean) [1] | P/N for acute sera (range, in parentheses) [1] | Reactivity with negative sera (reactive/tested) [2] | P/N for acute sera (individual values) [1] | percent of (IgM) anti-HAV-positive sera immunoreactive with peptide [1] |
| --- | --- | --- | --- | --- | --- | --- | --- | --- |
| FPTKYHSGRLLFCFVPGNEL [YK-1250] | broadly and strongly immunoreactive | 17/46 | 37.0 | 5.68 | (3.4-7.92) | 0/48 | – | – |
| FQSFPSGEPSNSKLSGFFQS [YK-1370] | – | 10/41 | 24.4 | 8.05 | (3.05-18.48) | 1/27 | – | – |
| FSQAKISLFYTEEHEIMKFS [YK-1319] | – | 13/48 | 27.1 | 3.87 | (3.14-5.01) | 2/51 | – | – |
| FTQCSMNVVSKTLFRKSPIY [YK-1395] | – | 8/41 | 19.5 | 6.52 | (3.51-17.52) | 1/27 | – | – |
| FWRGDLVFDFQVFPTKYHSG [YK-1248] | – | 3/41 | 7.3 | – | – | 0/46 | 3.16 and 3.2 | – |
| GGIKITHFTTWTSIPTLAAQ [YK-1236] | – | 22/46 | 47.8 | 4.68 | (3.1-9.33) | 0/48 | – | – |
| GITLKQATTAPCAVMDITGV [YK-1252] | – | 2/41 | 4.9 | – | – | 0/46 | 3.67 and 17.95 | – |
| GLDHILSLADIEEEQMIQSV [YK-1206] | – | 8/42 | 19.1 | 9.46 | (3.01-27.07) | 0/46 | – | – |
| GLVRKNLVQFGVGEKNGCVR [YK-1376] | – | 3/41 | 7.3 | 6.71 | (3.8-12.77) | 0/27 | – | – |
| GQKIVDEFKKLGMTATSADK [YK-1428] | – | 1/41 | 2.4 | 7.28 | – | 0/27 | – | – |
| HFKDPQYPVWELTIRVWSEL [YK-1222] | – | 2/41 | 4.9 | 4.29 | – | 0/46 | – | – |
| HFLCTFTFNSNNKEYTFPIT [YK-1279] | – | 7/41 | 17.1 | 3.43 | (3.11-3.67) | 1/46 | – | – |
| HGVTKPKQVIKLDADPVESQ [YK-1374] | very broad and strong antigenic reactivity | 18/41 | 43.9 | 10.57 | (3.28-29.07) | 0/27 | – | – |
| QRLKYAQEELSNEVLPPPRKMKGLF [YK-1665] | greater immunoreactivity than Peptide No. YK-1317 | – | – | – | – | – | – | – |
| SAVAEFFQSFPSGEPSNSKLSGFFQ [YK-1832] | – | – | – | – | – | – | – | about 86.0% |
| WLNPKKINLADRMLGLSGVQEIKEQ [YK-1757] | very strong antigenically reactive | – | – | – | – | – | – | – |
